According to patent US20230019491A1, “PYRIMIDINE TBK/IKKe INHIBITOR COMPOUNDS AND USES THEREOF” (Merck Patent GmbH, priority 2017, published 2023):
Where a name gives a salt, the structure may show the parent alone.

Columns and labels:
IKKε = molecular target: T1, IKKε (Homo sapiens, UniProt Q14164); experiment: IKKε biochemical assay; conditions: 10 point 1:4 dose response, 30 uM top concentration, 90 min at 25° C., LabChip EZ Reader II; read-out: IKKε_IC50
T1 sequence (Q14164 1-716): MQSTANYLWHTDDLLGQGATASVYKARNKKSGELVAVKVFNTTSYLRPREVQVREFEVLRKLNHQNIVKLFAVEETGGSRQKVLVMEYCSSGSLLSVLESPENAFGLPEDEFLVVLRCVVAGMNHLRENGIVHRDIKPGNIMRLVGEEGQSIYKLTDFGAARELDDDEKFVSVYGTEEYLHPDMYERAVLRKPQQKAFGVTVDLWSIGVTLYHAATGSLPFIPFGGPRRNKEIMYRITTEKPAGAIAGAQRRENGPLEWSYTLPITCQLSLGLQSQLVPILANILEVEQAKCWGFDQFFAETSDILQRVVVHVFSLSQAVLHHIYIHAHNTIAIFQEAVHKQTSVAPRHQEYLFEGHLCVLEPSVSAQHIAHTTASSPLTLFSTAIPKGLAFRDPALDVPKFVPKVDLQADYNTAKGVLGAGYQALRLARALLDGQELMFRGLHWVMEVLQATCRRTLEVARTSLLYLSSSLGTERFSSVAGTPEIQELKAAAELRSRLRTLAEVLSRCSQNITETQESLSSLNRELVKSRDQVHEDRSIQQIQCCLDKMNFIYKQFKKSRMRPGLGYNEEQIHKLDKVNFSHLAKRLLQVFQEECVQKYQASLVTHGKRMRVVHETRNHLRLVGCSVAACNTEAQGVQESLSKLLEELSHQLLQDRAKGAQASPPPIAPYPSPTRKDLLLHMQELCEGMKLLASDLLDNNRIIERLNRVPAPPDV
In short: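 Compounds in 1% DMSO final were incubated with IKKε enzyme and substrate at 25° C. for 90 min, then stopped. Substrate and product peaks were resolved by LabChip EZ Reader II mobility-shift read-out. Staurosporine at 10 uM final served as the full-inhibition control.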

TBK1 = molecular target: T2, TBK1 (Homo sapiens, UniProt Q9UHD2); experiment: TBK biochemical assay; conditions: 10 point 1:4 dose response, 30 uM top concentration, 90 min at 25° C., LabChip EZ Reader II; read-out: TBK1_IC50
T2 sequence (Q9UHD2 1-729): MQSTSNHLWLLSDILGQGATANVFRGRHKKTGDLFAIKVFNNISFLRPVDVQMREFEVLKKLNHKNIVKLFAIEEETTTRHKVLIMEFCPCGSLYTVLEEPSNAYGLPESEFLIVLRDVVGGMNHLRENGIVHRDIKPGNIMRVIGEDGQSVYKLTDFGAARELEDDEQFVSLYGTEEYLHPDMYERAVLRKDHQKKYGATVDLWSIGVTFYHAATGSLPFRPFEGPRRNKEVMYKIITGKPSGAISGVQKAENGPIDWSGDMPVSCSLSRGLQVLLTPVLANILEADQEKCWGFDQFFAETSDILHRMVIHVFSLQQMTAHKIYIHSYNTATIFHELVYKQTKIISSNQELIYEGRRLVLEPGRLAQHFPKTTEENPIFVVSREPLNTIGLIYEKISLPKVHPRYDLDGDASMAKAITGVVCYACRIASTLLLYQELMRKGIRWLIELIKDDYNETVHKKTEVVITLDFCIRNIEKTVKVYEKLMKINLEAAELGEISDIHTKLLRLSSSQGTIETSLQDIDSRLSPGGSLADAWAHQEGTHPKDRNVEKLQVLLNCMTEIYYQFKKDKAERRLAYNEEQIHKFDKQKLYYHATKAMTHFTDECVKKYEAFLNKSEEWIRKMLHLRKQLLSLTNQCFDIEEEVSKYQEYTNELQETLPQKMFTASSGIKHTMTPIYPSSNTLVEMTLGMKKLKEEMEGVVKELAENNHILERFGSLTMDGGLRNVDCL
In short: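 Substrate and product were separated and quantified by microfluidic mobility-shift read (LabChip). 10 uM staurosporine served as the full-inhibition control, and the reference compound was tested from 1 uM final.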

Row | Compound | IC50 (IKKε) | IC50 (TBK1)
1 | COc1cc(Nc2nccc(-c3ccc(OC4CCOCC4)c(C#N)c3)n2)cnc1N1CCN(C)CC1 [Example 54, 5-(2-[[5-methoxy-6-(4-methylpiperazin-1-yl)pyridin-3-yl]amino]pyrimidin-4-yl)-2-(oxan-4-yloxy)benzonitrile] | < 100 nM | < 100 nM
2 | COc1cc(Nc2nccc(-c3cc(C#N)c(OC4CCOCC4)cn3)n2)ncc1N1CCN(C)CC1 [Example 55, 2-(2-[[4-methoxy-5-(4-methylpiperazin-1-yl)pyridin-2-yl]amino]pyrimidin-4-yl)-5-(oxan-4-yloxy)pyridine-4-carbonitrile hydrochloride] | > 5000 nM | > 5000 nM
3 | COc1cc(C(=O)N(C)C)cnc1Nc1nccc(-c2ccc(NC3CCOCC3)c(C#N)c2)n1 [Example 60, 6-[(4-[3-cyano-4-[(oxan-4-yl)amino]phenyl]pyrimidin-2-yl)amino]-5-methoxy-N,N-dimethylpyridine-3-carboxamide] | > 5000 nM | > 5000 nM
4 | COc1nc(C(=O)N(C)C)ccc1Nc1nccc(-c2ccc(NC3CCOCC3)c(C#N)c2)n1 [Example 62, 5-[(4-[3-cyano-4-[(oxan-4-yl)amino]phenyl]pyrimidin-2-yl)amino]-6-methoxy-N,N-dimethylpyridine-2-carboxamide] | 100 to 1000 nM | < 100 nM
5 | CN1CCN(c2ccc(Nc3nccc(-c4ccc(OC5CCOCC5)c(C#N)c4)n3)cn2)CC1 [Example 66, 5-{2-[6-(4-Methyl-piperazin-1-yl)-pyridin-3-ylamino]-pyrimidin-4-yl}-2-(tetrahydro-pyran-4-yloxy)-benzonitrile] | < 100 nM | < 100 nM
6 | COc1nc(Nc2nccc(-c3ccc(OC4CCOC4)c(C#N)n3)n2)ccc1C(=O)N(C)C (centres unmarked) [Example 68, 6-([4-[6-cyano-5-(oxolan-3-yloxy)pyridin-2-yl]pyrimidin-2-yl]amino)-2-methoxy-N,N-dimethylpyridine-3-carboxamide] | < 100 nM | < 100 nM
7 | COc1nc(Nc2nccc(-c3ccc(OC4CCN(C)C4)c(C#N)c3)n2)ccc1C(=O)N(C)C (centres unmarked) [Example 70, 6-[(4-[3-cyano-4-[(1-methylpyrrolidin-3-yl)oxy]phenyl]pyrimidin-2-yl)amino]-2-methoxy-N,N-dimethylpyridine-3-carboxamide hydrochloride] | 100 to 1000 nM | 100 to 1000 nM
8 | COc1nc(Nc2nccc(-c3ccc(OC4CCN(C)CC4)c(C#N)c3)n2)ccc1C(=O)N(C)C [Example 71, 6-[(4-[3-cyano-4-[(1-methylpiperidin-4-yl)oxy]phenyl]pyrimidin-2-yl)amino]-2-methoxy-N,N-dimethylpyridine-3-carboxamide hydrochloride] | 100 to 1000 nM | 100 to 1000 nM
9 | COc1nc(Nc2nccc(-c3ccc(OC4CCNCC4)c(C#N)c3)n2)ccc1C(=O)N(C)C [Example 72, 6-([4-[3-cyano-4-(piperidin-4-yloxy)phenyl]pyrimidin-2-yl]amino)-2-methoxy-N,N-dimethylpyridine-3-carboxamide] | < 100 nM | < 100 nM
10 | COc1nc(Nc2nccc(-c3ccc(OC4CCN(C(=O)CO)CC4)c(C#N)c3)n2)ccc1C(=O)N(C)C [Example 73, 6-[[4-(3-cyano-4-[[1-(2-hydroxyacetyl)piperidin-4-yl]oxy]phenyl)pyrimidin-2-yl]amino]-2-methoxy-N,N-dimethylpyridine-3-carboxamide] | < 100 nM | < 100 nM
11 | COc1nc(Nc2nccc(-c3ccc(O[C@H]4CCNC[C@H]4F)c(C#N)c3)n2)ccc1C(=O)N(C)C [Example 74, 6-[[4-(3-cyano-4-[[(3R,4S)-3-fluoropiperidin-4-yl]oxy]phenyl)pyrimidin-2-yl]amino]-2-methoxy-N,N-dimethylpyridine-3-carboxamide] | < 100 nM | < 100 nM
12 | COc1nc(Nc2nccc(-c3ccc(OC4CCNCC4(F)F)c(C#N)c3)n2)ccc1C(=O)N(C)C (centres unmarked) [Example 76, 6-[(4-[3-cyano-4-[(3,3-difluoropiperidin-4-yl)oxy]phenyl]pyrimidin-2-yl)amino]-2-methoxy-N,N-dimethylpyridine-3-carboxamide] | < 100 nM | < 100 nM

Now from value to molecule:

Row | IC50 (IKKε) | IC50 (TBK1) | Compound
13 | 100 to 1000 nM | 100 to 1000 nM | COc1cc(Nc2nccc(-c3cc(C#N)c(OC4CCOCC4)cn3)n2)cnc1N1CCN(C)CC1 [Example 56, 2-(2-[[5-methoxy-6-(4-methylpiperazin-1-yl)pyridin-3-yl]amino]pyrimidin-4-yl)-5-(oxan-4-yloxy)pyridine-4-carbonitrile]
14 | < 100 nM | < 100 nM | COc1cc(Nc2nccc(-c3ccc(OC4CCOCC4)c(C#N)c3)n2)cnc1C1CCN(C)CC1 [Example 57, 5-(2-[[5-methoxy-6-(1-methylpiperidin-4-yl)pyridin-3-yl]amino]pyrimidin-4-yl)-2-(oxan-4-yloxy)benzonitrile]
15 | > 5000 nM | 1000 to 5000 nM | COc1cc(C(=O)N(C)C)cnc1Nc1nccc(-c2ccc(OC3CCOCC3)c(C#N)c2)n1 [Example 58, 6-([4-[3-cyano-4-(oxan-4-yloxy)phenyl]pyrimidin-2-yl]amino)-5-methoxy-N,N-dimethylpyridine-3-carboxamide]
16 | < 100 nM | 100 to 1000 nM | COc1cc(Nc2nccc(-c3ccc(OC4CCOCC4)c(C#N)c3)n2)ncc1C1CCN(C)CC1 [Example 59, 5-(2-[[4-methoxy-5-(1-methylpiperidin-4-yl)pyridin-2-yl]amino]pyrimidin-4-yl)-2-(oxan-4-yloxy)benzonitrile hydrochloride]
17 | 100 to 1000 nM | 100 to 1000 nM | COc1cc(C(=O)N(C)C)ncc1Nc1nccc(-c2ccc(NC3CCOCC3)c(C#N)c2)n1 [Example 61, 5-[(4-[3-cyano-4-[(oxan-4-yl)amino]phenyl]pyrimidin-2-yl)amino]-4-methoxy-N,N-dimethylpyridine-2-carboxamide]
18 | < 100 nM | < 100 nM | COc1nc(Nc2nccc(-c3ccc(NC4CCOCC4)c(C#N)c3)n2)ccc1C(=O)N(C)C [Example 63, 6-[(4-[3-cyano-4-[(oxan-4-yl)amino]phenyl]pyrimidin-2-yl)amino]-2-methoxy-N,N-dimethylpyridine-3-carboxamide]
19 | < 100 nM | < 100 nM | COc1nc(Nc2nccc(-c3ccc(NC4CCOCC4)c(C#N)n3)n2)ccc1C(=O)N(C)C [Example 64, 6-[(4-[6-cyano-5-[(oxan-4-yl)amino]pyridin-2-yl]pyrimidin-2-yl)amino]-2-methoxy-N,N-dimethylpyridine-3-carboxamide]
20 | < 100 nM | < 100 nM | COc1nc(Nc2ncc(F)c(-c3ccc(OC4CCOCC4)c(C#N)c3)n2)ccc1N1CCN(C)CC1 [Example 67, 5-{5-Fluoro-2-[6-methoxy-5-(4-methyl-piperazin-1-yl)-pyridin-2-ylamino]-pyrimidin-4-yl}-2-(tetrahydro-pyran-4-yloxy)-benzonitrile]
21 | 100 to 1000 nM | 100 to 1000 nM | COc1nc(Nc2nccc(-c3ccc(OC4CN(C)C4)c(C#N)c3)n2)ccc1C(=O)N(C)C [Example 69, 6-[(4-[3-cyano-4-[(1-methylazetidin-3-yl)oxy]phenyl]pyrimidin-2-yl)amino]-2-methoxy-N,N-dimethylpyridine-3-carboxamide]
22 | < 100 nM | < 100 nM | COc1nc(Nc2nccc(-c3ccc(O[C@H]4CCN(C(=O)CO)C[C@H]4F)c(C#N)c3)n2)ccc1C(=O)N(C)C [Example 75, 6-[[4-(3-cyano-4-[[(3R,4S)-3-fluoro-1-(2-hydroxyacetyl)piperidin-4-yl]oxy]phenyl)pyrimidin-2-yl]amino]-2-methoxy-N,N-dimethylpyridine-3-carboxamide hydrochloride]
